Patent publication US20170081338A1, “SUBSTITUTED HETEROARYL COMPOUNDS AND METHODS OF USE” (Sunshine Lake Pharma Co., Ltd., priority 2015, published 2017)

Key:
[1] = biological target: T1, FLT3 (h) (Homo sapiens, UniProt P36888); experiment: FLT3 (h) kinase assay; type: biochemical
T1 construct: purchased Millipore UK Ltd (contract assay service)
T1 sequence (P36888 27-993): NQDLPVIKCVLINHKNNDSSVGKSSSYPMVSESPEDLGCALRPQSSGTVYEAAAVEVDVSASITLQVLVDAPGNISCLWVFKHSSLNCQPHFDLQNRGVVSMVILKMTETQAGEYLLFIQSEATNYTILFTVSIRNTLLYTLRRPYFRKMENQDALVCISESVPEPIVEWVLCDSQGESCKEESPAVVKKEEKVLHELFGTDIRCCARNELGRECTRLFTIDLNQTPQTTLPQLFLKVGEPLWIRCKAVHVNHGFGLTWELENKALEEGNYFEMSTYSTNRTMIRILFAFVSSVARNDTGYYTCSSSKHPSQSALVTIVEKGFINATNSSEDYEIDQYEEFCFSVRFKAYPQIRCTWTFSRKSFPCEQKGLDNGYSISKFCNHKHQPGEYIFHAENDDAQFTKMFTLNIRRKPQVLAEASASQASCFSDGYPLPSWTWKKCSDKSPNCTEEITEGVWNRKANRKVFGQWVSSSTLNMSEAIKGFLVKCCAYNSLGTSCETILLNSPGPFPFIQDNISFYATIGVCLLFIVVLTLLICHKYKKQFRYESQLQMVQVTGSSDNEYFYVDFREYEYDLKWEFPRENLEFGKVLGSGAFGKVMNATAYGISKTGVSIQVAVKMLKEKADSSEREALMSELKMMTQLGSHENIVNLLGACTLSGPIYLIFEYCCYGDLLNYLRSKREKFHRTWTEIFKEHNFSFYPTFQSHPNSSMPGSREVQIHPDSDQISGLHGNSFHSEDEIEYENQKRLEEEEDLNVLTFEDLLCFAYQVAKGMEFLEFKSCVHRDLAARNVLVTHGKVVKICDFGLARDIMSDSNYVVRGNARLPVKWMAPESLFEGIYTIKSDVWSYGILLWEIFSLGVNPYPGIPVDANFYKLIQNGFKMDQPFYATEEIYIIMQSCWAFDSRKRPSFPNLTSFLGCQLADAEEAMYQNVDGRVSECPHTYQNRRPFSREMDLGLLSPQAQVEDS
Method: Kinase assays can be performed by measurement of incorporation of γ-^33P ATP into immobilized myelin basic protein (MBP). High binding white 384 well plates (Greiner) are coated with MBP (Sigma #M-1891) by incubation of 60 μL/well of 20 μg/mL MBP in Tris-buffered saline (TBS; 50 mM Tris pH 8.0, 138 mM NaCl, 2.7 mM KCl) for 24 h at 4° C. Plates are washed 3× with 100 μL TBS. Kinase reactions are carried out in a total volume of 34 μL in kinase buffer (according to the need to make, for example, 5 mM Hepes pH 7.6, 15 mM NaCl, 0.01% bovine gamma globulin (Sigma #1-5506), 10 mM MgCl2, 1 mM DTT, 0.02% TritonX-100). Compound dilutions are performed in DMSO and added to assay wells to a final DMSO concentration of 1%. Each data point is measured in duplicate, and at least two duplicate assays are performed for each individual compound determination. […] A mixture of unlabeled ATP and γ-^33P ATP is added to start the reaction (2×10^6 cpm of γ-^33P ATP per well (3000 Ci/mmole) and 10 μM unlabeled ATP, typically. The reactions are carried out for 1 h at room temperature with shaking. Plates are washed 7× with TBS, followed by the addition of 50 µL/well scintillation fluid (Wallac). Plates are read using a Wallac Trilux counter. This is only one format of such assays; various other formats are possible, as known to one skilled in the art. […]

[2] = biological target: T2, Aurora-A (h) (Homo sapiens, UniProt O14965); experiment: Aurora-A (h) kinase assay; type: biochemical
T2 construct: purchased Millipore UK Ltd (contract assay service)
T2 sequence (O14965 1-403): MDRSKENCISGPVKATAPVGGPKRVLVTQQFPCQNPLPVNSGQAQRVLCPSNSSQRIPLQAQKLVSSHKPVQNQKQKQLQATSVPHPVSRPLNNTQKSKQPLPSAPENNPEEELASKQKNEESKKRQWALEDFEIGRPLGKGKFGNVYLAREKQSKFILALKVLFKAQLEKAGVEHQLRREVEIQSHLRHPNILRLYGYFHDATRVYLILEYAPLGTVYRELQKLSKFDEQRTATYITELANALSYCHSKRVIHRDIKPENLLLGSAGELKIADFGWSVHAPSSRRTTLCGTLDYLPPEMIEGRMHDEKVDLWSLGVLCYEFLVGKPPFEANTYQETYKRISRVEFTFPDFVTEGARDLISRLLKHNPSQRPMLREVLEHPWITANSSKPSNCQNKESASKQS
Procedure, shortened: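 Human Aurora-A incubated with 200 μM Kemptide, 10 mM Mg acetate, [γ-33P]ATP in 8 mM MOPS pH 7.0 for 40 min at room temperature; stopped with phosphoric acid, spotted on P30 filtermat and scintillation counted. IC50 from 10-point ½-log dilution series.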

CC(C)CS(=O)(=O)N[C@H]1COC2C1OC[C@H]2Nc1nc(Nc2cnn(C)c2)ncc1Cl (stereo partly drawn) [Ex. 2, N-((3S,6R)-6-((5-chloro-2-((1-methyl-1H-pyrazol-4-yl)amino)pyrimidin-4-yl)amino)hexahydrofuro[3,2-b]furan-3-yl)-2-methylpropane-1-sulfonamide]
IC50 [1]: 846 nM
IC50 [2]: 20 nM

Cn1cc(Nc2ncc(Cl)c(N[C@@H]3COC4C3OC[C@@H]4NS(=O)(=O)CC(C)(C)C#N)n2)cn1 (stereo partly drawn) [Ex. 26, N-((3S,6R)-6-((5-chloro-2-((1-methyl-1H-pyrazol-4-yl)amino)pyrimidin-4-yl)amino)hexahydrofuro[3,2-b]furan-3-yl)-2-cyano-2-methylpropane-1-sulfonamide]
IC50 [2]: 6 nM

Cn1cc(Nc2ncc(Cl)c(N[C@@H]3COC4C3OC[C@@H]4NS(=O)(=O)CC(F)(F)F)n2)cn1 (stereo partly drawn) [Ex. 27, N-((3S,6R)-6-((5-chloro-2-((1-methyl-1H-pyrazol-4-yl)amino)pyrimidin-4-yl)amino)hexahydrofuro[3,2-b]furan-3-yl)-2,2,2-trifluoroethanesulfonamide]
IC50 [2]: 39 nM

Cn1cc(Nc2ncc(Cl)c(N[C@@H]3COC4C3OC[C@@H]4NS(=O)(=O)CC3CC3)n2)cn1 (stereo partly drawn) [Ex. 25, N-((3S,6R)-6-((5-chloro-2-((1-methyl-1H-pyrazol-4-yl)amino)pyrimidin-4-yl)amino)hexahydrofuro[3,2-b]furan-3-yl)-1-cyclopropylmethanesulfonamide]
IC50 [2]: 5 nM
